Laboratory results published in ChEMBL document CHEMBL1159249, “Malyngamide H, an ichthyotoxic amide possessing a new carbon skeleton from the Caribbean cyanobacterium Lyngbya majuscula” (J Nat Prod, 1995).
≈ marks a conversion by molar mass, not a printed value.

Columns and labels:
Assay type in all cases: organism-based; call rule not given here
[1] = Ichthyotoxicity in gold fish assessed as death after 1 hr; details: carassius auratus, in vivo
[2] = tested on: Carassius auratus; assay: Ichthyotoxicity in gold fish assessed as inability to swim after 1 hr
[3] = tested on: Artemia; assay: Toxicity in brine shrimp; details: in vivo

SMILES: C=C(CCNC(=O)CC/C=C/C[C@H](CCCCCCC)OC)[C@@]12O[C@@H]1CC=C(C)C2=O [MALYNGAMIDE H]
- LC50 at 1 h [1]: 5 µg/mL (≈ 11.6 µM)
- EC50 [2]: 2 µg/mL (≈ 4.63 µM)
- Activity [3]: Not Active
